Measurements taken from the NIST ThermoML archive (doi:10.1016/j.tca.2014.03.043).
Several values for one entry are separate records, joined by “and”; a condition that tells them apart may be missing. Equal entries are not always repeated.

Assay: molar heat capacity at constant pressure
Conditions: 101.33 kPa, Liquid, Small sample (50 mg) DSC

OCCC1CCCCC1 [2-cyclohexylethanol]
Conditions | molar heat capacity at constant pressure
253.5 K | 222 J/K/mol and 223.33 J/K/mol
256.05 K | 226.07 J/K/mol and 226.32 J/K/mol
260.65 K | 229.4 J/K/mol and 229.73 J/K/mol
265.75 K | 233.72 J/K/mol and 233.97 J/K/mol
270.86 K | 238.29 J/K/mol and 238.21 J/K/mol
275.96 K | 242.12 J/K/mol and 242.2 J/K/mol
281.07 K | 246.19 J/K/mol and 246.44 J/K/mol
286.17 K | 251.6 J/K/mol and 251.26 J/K/mol
291.28 K | 256.67 J/K/mol and 256.42 J/K/mol
296.38 K | 261.91 J/K/mol and 262.07 J/K/mol
301.48 K | 267.56 J/K/mol and 266.98 J/K/mol
306.59 K | 273.13 J/K/mol and 273.21 J/K/mol
311.7 K | 278.7 J/K/mol and 279.03 J/K/mol
316.81 K | 284.35 J/K/mol
321.91 K | 290.17 J/K/mol and 289.93 J/K/mol
327.01 K | 295.5 J/K/mol and 295.58 J/K/mol
332.12 K | 301.15 J/K/mol and 300.82 J/K/mol
337.22 K | 307.39 J/K/mol and 306.64 J/K/mol
342.33 K | 313.87 J/K/mol and 312.71 J/K/mol
347.43 K | 318.61 J/K/mol and 317.95 J/K/mol
352.54 K | 323.27 J/K/mol and 322.6 J/K/mol

C=CCO [2-propenol]
Conditions | molar heat capacity at constant pressure
273.41 K | 134.94 J/K/mol and 134.61 J/K/mol
278.52 K | 137.19 J/K/mol and 137.35 J/K/mol
283.62 K | 139.43 J/K/mol and 139.18 J/K/mol
288.72 K | 141.93 J/K/mol and 141.68 J/K/mol
293.83 K | 144.34 J/K/mol and 144.17 J/K/mol
298.93 K | 146.67 J/K/mol and 146.5 J/K/mol
304.04 K | 149.16 J/K/mol and 149.08 J/K/mol
309.14 K | 152.32 J/K/mol and 151.82 J/K/mol
314.25 K | 154.82 J/K/mol and 154.4 J/K/mol
319.35 K | 157.23 J/K/mol and 157.06 J/K/mol
324.46 K | 160.14 J/K/mol and 160.3 J/K/mol

OCCCC1CCCCC1 [3-cyclohexyl-1-propanol]
Conditions | molar heat capacity at constant pressure
258.09 K | 254.42 J/K/mol and 254.84 J/K/mol
263.2 K | 258.91 J/K/mol and 258.66 J/K/mol
268.3 K | 263.07 J/K/mol and 262.65 J/K/mol
273.41 K | 267.64 J/K/mol and 267.48 J/K/mol
278.51 K | 272.22 J/K/mol and 271.97 J/K/mol
283.62 K | 277.37 J/K/mol and 277.12 J/K/mol
288.72 K | 282.28 J/K/mol
293.83 K | 288.01 J/K/mol and 287.76 J/K/mol
298.93 K | 293.5 J/K/mol and 293.33 J/K/mol
304.04 K | 299.74 J/K/mol
309.14 K | 305.72 J/K/mol and 305.64 J/K/mol
314.25 K | 311.63 J/K/mol and 311.54 J/K/mol
319.35 K | 317.61 J/K/mol and 317.7 J/K/mol
324.46 K | 323.6 J/K/mol and 323.85 J/K/mol
329.56 K | 330.5 J/K/mol and 330 J/K/mol
334.67 K | 335.9 J/K/mol and 336.24 J/K/mol
339.77 K | 342.31 J/K/mol and 342.39 J/K/mol
344.88 K | 348.46 J/K/mol and 348.63 J/K/mol
349.98 K | 354.28 J/K/mol and 354.61 J/K/mol
355.09 K | 360.35 J/K/mol and 360.02 J/K/mol

OCC1CCCCC1 [cyclohexylmethanol]
Conditions | molar heat capacity at constant pressure
258.09 K | 199.13 J/K/mol and 198.88 J/K/mol
263.2 K | 202.87 J/K/mol and 202.54 J/K/mol
268.3 K | 207.03 J/K/mol and 206.61 J/K/mol
273.41 K | 211.52 J/K/mol and 210.94 J/K/mol
278.51 K | 215.68 J/K/mol and 215.18 J/K/mol
283.62 K | 220.83 J/K/mol and 219.83 J/K/mol
288.72 K | 225.32 J/K/mol and 224.74 J/K/mol
293.83 K | 230.56 J/K/mol and 229.98 J/K/mol
298.93 K | 236.46 J/K/mol and 235.55 J/K/mol
304.04 K | 242.28 J/K/mol and 241.62 J/K/mol
309.14 K | 247.94 J/K/mol and 247.36 J/K/mol
314.25 K | 254.26 J/K/mol and 253.34 J/K/mol
319.35 K | 260.24 J/K/mol and 259.49 J/K/mol
324.46 K | 265.98 J/K/mol and 265.56 J/K/mol
329.57 K | 271.38 J/K/mol and 270.55 J/K/mol
334.67 K | 276.54 J/K/mol and 275.87 J/K/mol
339.77 K | 281.78 J/K/mol and 280.86 J/K/mol
344.88 K | 287.35 J/K/mol and 286.52 J/K/mol
349.98 K | 292.34 J/K/mol and 291.51 J/K/mol
355.09 K | 296.83 J/K/mol and 296.33 J/K/mol
